A short description of data set [1]: Conversion in fresh human blood. The data set is classed as in vitro ADME. As to conditions: fresh blood 37° C., 1 μg/mL, 0-60 minutes. The procedure:
(§1) Conversion of (Id) in human blood (average of 3 donors) and rat blood (average of 45 donors) to (I) was shown in fresh blood at 37° C. spiked with 1 μg/mL of (Id). (I) was measured at 0, 5, 15, 30 and 60 minutes in isolated plasma. Analysis method and Instrumentation as described in Example 7 below in the section “Instrumentation used for analysis of compound (I) from dosing of compounds (Ic) and (Id).”

In the next data set the test system is human hepatocytes. As to the kind of experiment: Incubation with human hepatocytes. It counts as in vitro ADME. The following applies: 1 μg/mL, 37° C., 0.25-60 minutes. The procedure:
(§2) The cell concentration at incubation was 1×10^6 viable cells/mL. The incubations were performed in glass tubes at 37° C. with a total incubation volume of 3.5 mL and with duplicate incubations for each test item. The 3.5 mL of hepatocyte suspension was equilibrated for 10 minutes in a water bath set to 37° C. where after the incubations were initiated by adding 3.5 μL of a stock solution of the test item in DMSO (Dimethyl sulfoxide) and gently inverting the tubes. The final solvent concentration in the incubations was 0.1% DMSO. Samples of 600 μL were withdrawn from the incubations at the pre-determined time points of 0.25, 5, 15, 30 and 60 minutes after ensuring homogeneity of hepatocyte suspensions. The withdrawn volume was added to 1 mL Nunc cryotubes on wet ice containing 60 μL of ice-cold ascorbic acid (100 mg/mL) and 30 μL of ice cold 100 mM saccharic acid 1.4-lactone in 0.5 M citric acid. The tubes were mixed and 35 μL of a solution of ice cold 20% formic acid was added. The tubes were mixed thoroughly and stored at −80° C. awaiting analysis.

Another data set deals with rat locomotor activity. As to the kind of experiment: Rat locomotor activity (hyperactivity) assay, open field, with PK/PD. It counts as in vivo, male CD rats. The procedure: Animals were dosed at t=60 minutes after a 60-minutes habituation period in test chambers, and activity was monitored for 350 minutes thereafter.
In total, 206 male CD rats (Charles River, Germany) weighing 200-250 grams (165-190 grams upon arrival) were used in the study. Animals were housed at a standard temperature (22±1° C.) and in a light-controlled environment (lights on from 7 am to […]) with ad libitum access to food and water. The experiment described below was performed in accordance with the standard operating procedures of Charles River Discovery Research Services Finland Ltd. and in accordance with the national Animal Experiment Board of Finland (Eläinkoelautakunta, ELLA) authority on animal testing.
The test device is a square Plexiglass-arena (measuring 40×40×40 cm), in which the movement paths of the rats are recorded by an activity monitor (Med. Associates Inc.). Before the test period is initiated, rats are habituated to their test cage for 60 minutes. Upon completion of habituation, animals were treated with either compound or vehicle and placed back into the open field apparatus. The main test parameter measured is ambulatory distance (recorded in 5-minute segments). Overall time of measurement after receiving initial treatment was 360 minutes. Total follow up period in the study was 420 min, including 60 min of habituation.

The nature of data set [2]: In vivo conversion after oral dosing in minipigs.
The next data set concerns the target T1, human 5-HT2B receptor (Homo sapiens, UniProt P41595).
T1 construct: host or cells: CHO
In words: 5-HT2B agonist activity assay (IP1 production, HTRF). It counts as cell-based. As to conditions: example 6 and Table 2. The procedure:
Evaluation of the agonist activity of compounds (I), (Ia), (Ib), (Ic) and (Id) at the human 5-HT2B receptor was performed by Eurofins/Cerep (France) measuring the compound effects on inositol monophosphate (IP1) production using the HTRF detection method. Briefly, the human 5-HT2B receptor was expressed in transfected CHO cells. The cells were suspended in a buffer containing 10 mM Hepes/NaOH (pH 7.4), 4.2 mM KCl, 146 mM NaCl, 1 mM CaCl2, 0.5 mM MgCl2, 5.5 mM glucose and 50 mM LiCl, then distributed in microplates at a density of 4100 cells/well and incubated for 30 minutes at 37° C. in the presence of buffer (basal control), test compound or reference agonist. For stimulated control measurement, separate assay wells contained 1 μM 5-HT. Following incubation, the cells were lysed and the fluorescence acceptor (fluorophen D2-labeled IP1) and fluorescence donor (anti-IP1 antibody labeled with europium cryptate) were added. After 60 minutes at room temperature, the fluorescence transfer was measured at lambda (Ex) 337 nm and lambda (Em) 620 and 665 nm using a microplate reader (Rubystar, BMG). The IP1 concentration was determined by dividing the signal measured at 665 nm by that measured at 620 nm (ratio). The results were expressed as a percent of the control response to 1 μM 5-HT. The standard reference agonist was 5-HT, which was tested in each experiment at several concentrations to generate a concentration-response curve from which its EC50 value is calculated as described above for dopamine functional assays.

In another data set the test system is rat hepatocytes. In words: Incubation with rat hepatocytes. The data set is classed as in vitro ADME. The following applies: 1 μg/mL, 37° C., 0.25-60 minutes. On the procedure:
as §2

The nature of data set [3]: Conversion in fresh rat blood. The data set is classed as in vitro ADME. As to conditions: fresh blood 37° C., 1 μg/mL, 0-60 minutes. On the procedure: as §1

Structures are written as SMILES.

T1 sequence (P41595 whole entry): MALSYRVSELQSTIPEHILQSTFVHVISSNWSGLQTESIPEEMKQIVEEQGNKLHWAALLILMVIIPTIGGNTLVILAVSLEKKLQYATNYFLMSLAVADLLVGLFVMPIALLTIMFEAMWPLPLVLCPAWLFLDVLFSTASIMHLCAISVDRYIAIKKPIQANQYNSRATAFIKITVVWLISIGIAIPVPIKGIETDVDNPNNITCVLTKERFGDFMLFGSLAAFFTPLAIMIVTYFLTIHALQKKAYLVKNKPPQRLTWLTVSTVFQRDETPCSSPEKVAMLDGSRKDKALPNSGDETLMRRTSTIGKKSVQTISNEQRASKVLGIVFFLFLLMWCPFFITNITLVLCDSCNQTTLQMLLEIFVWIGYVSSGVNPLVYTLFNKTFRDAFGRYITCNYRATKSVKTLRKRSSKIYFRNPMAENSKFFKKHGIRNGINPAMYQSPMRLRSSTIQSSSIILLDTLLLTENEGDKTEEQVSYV

In the case of `CCCN1CCC[C@@H]2Cc3c(ccc(O)c3O[C@@H]3O[C@H](C(=O)O)[C@@H](O)[C@H](O)[C@H]3O)C[C@H]21` [compound (Id), (2S,3S,4S,5R,6S)-3,4,5-trihydroxy-6-(((4aR,10aR)-7-hydroxy-1-propyl-1,2,3,4,4a,5,10,10a-octahydrobenzo[g]quinolin-6-yl)oxy)tetrahydro-2H-pyran-2-carboxylic acid], the “Conversion of (Id) to compound (I) in human blood” value in data set [1] is “time dependent conversion”. In the data set on human hepatocytes, the “Conversion of (Id) to compound (I) in human hepatocytes” value is listed as “time dependent conversion”. The “Relationship between plasma concentration and hyperactivity” value in the data set with rat locomotor activity ((Id) 100 μg/kg p.o. (plasma compound (I)), apomorphine 3 mg/kg s.c. (plasma apomorphine)) was “correlate with the plasma concentrations of compound (I)”. The “Locomotor activity: start of effect post-administration” value in the data set on rat locomotor activity ((Id) 10 to 300 μg/kg p.o., apomorphine 3 mg/kg s.c., pramipexole 0.3 mg/kg s.c.) was about 2 h. Further, the “Locomotor activity: end of effect post administration” value in the data set with rat locomotor activity ((Id) 10 to 300 μg/kg p.o., apomorphine 3 mg/kg s.c., recording until 415-minute time point) was “lasting until the end of recording”. The “Total distance travelled (FIG. 3)” value in the data set with rat locomotor activity (versus vehicle, (Id) p.o., apomorphine 3 mg/kg s.c., pramipexole 0.3 mg/kg s.c.) is on record as “significantly increased activity”. In data set [2], the “In vivo conversion of (Id) to compound (I)” value was “observed”. Further, the “5-HT2B receptor agonism (in words)” value on human 5-HT2B receptor was “not a 5-HT2B agonists”. The “Conversion of (Id) to compound (I) in rat hepatocytes” value in the data set on rat hepatocytes was “time dependent conversion”. The “Conversion of (Id) to compound (I) in rat blood” value in data set [3] is reported as “time dependent conversion”.

These data come from patent US11827665B2, “Process for the manufacture of (2S,3S,4S,5R,6S)-3,4,5-trihydroxy-6-(((4AR,10AR)-7-hydroxy-1-propyl-1,2,3,4,4A,5,10,10A-octahydrobenzo[g]quinolin-6-yl)oxy)tetrahydro-2H-pyran-2-carboxylic acid” (H. Lundbeck A/S, priority 2019, dated 2023).
